Assay results as given in patent publication US5246935A, “Piperazinyl derivatives and methods of treating central nervous system ailments relating to the 5-HT2 receptor system” (Novo Nordisk A/S, priority 1990, dated 1993).
Structures can show the parent of a compound that is named as a salt.

How the values were obtained:
[1] = biological target: T1, 5HT2 receptor (Rattus norvegicus, UniProt P14842); assay: In Vitro Inhibition of 5HT2-Receptor Binding (3H-Ketanserine); design: species or system rat (male Wistar); settings: 3H-Ketanserine 0.4 nM, rat frontal cortex, 37° C., 15 min
T1 construct: incubated with isolated cell-membrane fragments; from tissue; host or cells: frontal cortex of male Wistar rats (membranes)
T1 sequence (P14842 whole entry, the tested form may be a part): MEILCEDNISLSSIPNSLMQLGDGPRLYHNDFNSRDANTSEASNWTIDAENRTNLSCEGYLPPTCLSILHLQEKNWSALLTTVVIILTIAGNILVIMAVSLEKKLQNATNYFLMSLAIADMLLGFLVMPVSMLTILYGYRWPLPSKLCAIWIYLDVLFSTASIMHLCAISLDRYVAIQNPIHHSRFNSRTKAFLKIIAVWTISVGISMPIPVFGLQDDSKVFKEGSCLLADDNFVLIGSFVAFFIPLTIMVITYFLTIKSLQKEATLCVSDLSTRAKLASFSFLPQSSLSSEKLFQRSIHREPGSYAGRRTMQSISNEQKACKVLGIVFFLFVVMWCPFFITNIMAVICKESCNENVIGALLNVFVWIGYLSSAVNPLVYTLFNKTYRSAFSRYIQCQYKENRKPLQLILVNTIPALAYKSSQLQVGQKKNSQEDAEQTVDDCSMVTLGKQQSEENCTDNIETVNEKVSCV
Description: In Vitro Inhibition of 5HT2 -Receptor Binding
Radioactive-labelled ligand ^3 H-Ketanserine is incubated with isolated cell-membrane fragments at 37° C. for a given period of time. Following completed incubation, the incubate is filtered through GF/B filters which are rinsed after filtration to remove unspecifically adhered radioactivity. As opposed to low-molecular compounds, membrane fragments are not rinsed through the filters, the radioactivity bound to the filters indicates the amount of ligand bound specifically as well as non-specifically to the membranes.
The preparation is made in ice bath. Polytron kinematica is rinsed with milli-Q-H2 O before and after use. Male Wistar rats, 150-200 g are decapitated. Frontal cortex is removed quickly and weighed (approx. 200 mg). Frontal cortex is added to centrifuging vial containing 10 ml ice-cold D2 buffer. Homogenization applying polytron kinematica (homogenizer) setting 6 for 20 sec. The homogenizer is rinsed with 10 ml D2 buffer in another centrifuging vial. The 10 ml rinsing buffer is added to the tissue vial. Centrifuged at 18,000 rpm for 10 min. at 4° C. Final pellet is transferred to 125×vol. of same buffer. (Ex. 200 mg in 25 ml D2 buffer). Can be stored for approx. 30 min. at 0° C.
25 μl ^3 H-Ketanserine (0.4 nM)
25 μl test substance/H2 O/blind cyproheptadine (2 μM)
Incubation for 15 min. at 37° C.
10 ml ice-cold 0.9% NaCl is added to the tubes. Filtration is performed through GF/B filters (use gloves). This procedure is repeated. Filters are placed in counting vials, and 4 ml opti- flour is added (prepare in fume cupboard, use gloves). Counting at window 0-19 of the beta-counter (Pachard). Note that receptor box and lid are rinsed thoroughly in H2 O after use to avoid contamination. Further the analytical site is cleaned carefully every day.
Dissolved in H2 O, EtOH, MeOH or DMSO and further diluted in H2 O. The 5HT2 binding will stand concentrations of up to approx. 5% of these solvents without affecting the binding. Most stock solutions are stable at 4° C. Attention should, however, be paid to any precipitation, change in colour etc. Test-substance dilutions are always made fresh every day. When weighing out test substance, it is attempted to weigh out approx. 1 mg of substance. Less than 0.8 mg must never be weighed out and only infrequently more than 2 mg (for economy reasons) dependent, however, on conc./assay.

[2] = biological target: Alpha1 receptor; assay: In-Vitro Inhibition of Alpha1-Receptor Binding (3H-Prazosin); design: species or system rat (male Wistar); settings: 3H-Prazosin 0.5 nM, rat cortex, 25° C., 30 min; read-out: Receptor binding IC50 α1
Description: In-Vitro Inhibition of Alpha1 -Receptor Binding, Radioactive-labelled ligand ^3 H-Prazosin is incubated with isolated cell-membrane fragments at 25° C. for a given period of time. Following completed incubation, the incubate is filtered through GF/B filters, which are rinsed following filtration to remove unspecifically adhered radioactivity. As opposed to low- molecular compounds, membrane fragments are not rinsed through the filters, the radioactivity bound to the filters indicates the amount of ligand bound specifically as well as nonspecifically to the membranes. The procedure is performed in ice bath. Polytron kinematica is rinsed with milli-Q-H2 O before and after use. Male Wistar rats, 150-200 g are decapitated, cortex is removed quickly and weighed (approx. 500 mg). Cortex is transferred to a centrifuging vial containing 10 ml ice-cold D2 buffer. Homogenization applying polytron kinematica (homogenizer) setting 6 for 20 sec. The homogenizer is rinsed with 10 ml D2 buffer in another centrifuging vial. The 10 ml rinsing buffer is added to the tissue vial. Centrifugation at 18,000 rpm for 12 min. at 4° C. This is repeated once. Final pellet is added to 400×vol. of same buffer. (Ex. 500 mg cortex in 200 ml D2 buffer). Can be stored for 30 min. at 0° C. 2,000 μl tissue 25 μl ^3 H-Prazosin (0.5 nM) 25 μl test substance/H2 O/blind Phentolamine (10 μM) Incubation for 30 min. at 25° C. 10 ml of ice-cold 0.9% NaCl is added to the tubes and filtered through GF/B filters (use gloves). This procedure is repeated. Filters are placed in counting vials and 4 ml opti-flour is added (perform in fume cupboard, use gloves). Counting is performed at window 0-19 of the betacounter (Pachard). […] Further, the analytical site is cleaned carefully every day after use. Dissolved in H2 O, EtOH, MeOH or DMSO and further diluted in H2 O. […] Most stock solutions are stable at 4° C. Attention should, however, be paid to any precipitation, change in colour etc. Test-substance dilutions are always prepared fresh every day. When weighing out test substances, it is attempted to weigh out approx. 1 mg of substance. Less than 0.8 mg must never be weighed out and only infrequently more than 2 mg (for economy reasons) dependent, however, on conc./ass.

SMILES | IC50 [1] [nM] | IC50 [2] [nM]
COc1ccc2cccc(N3CCN(CCCOC(=O)Nc4ccc5c(c4)OCO5)CC3)c2c1 [Example 34, 1-(7-Methoxy-1-naphthyl)-4-[3-(3,4-methylenedioxyphenylcarbamoyloxy)propyl]piperazine, HCl] | 13 | 144
O=C(Nc1ccc2ncsc2c1)OCCCN1CCN(c2ccc(Cl)cc2)CC1 [Example 19, 4-(4-Chlorophenyl)-1-[3-(6-benzothiazolylcarbamoyloxy)propyl]piperazine, hydrochloride] | 22 | 122
COc1cc(NC(=O)OCCCN2CCN(c3ccccc3Cl)CC2)cc(OC)c1OC.Cl [Example 3, 4-(2-Chlorophenyl)-1-[3-(3,4,5-trimethoxyphenylcarbamoyloxy)propyl]piperazine, hydrochloride] | 7.5 | 45
COc1cc(NC(=O)OCCCN2CCN(c3ccc(F)cc3)CC2)cc(OC)c1OC [Example 8, 4-(4-Fluorophenyl)-1-[3-(3,4,5-trimethoxyphenylcarbamoyloxy)propyl]piperazine, hydrochloride] | 10 | 61
